Our source for the IC50 values is US20250127907A1, “PARP INHIBITORS” (Stablix, Inc., priority 2023, published 2025).

Format in all cases: cell-based
The subject of test [1] is Poly/Mono-ADP Ribose in U2OS cells. Kind of test: PAR in cell western assay (parylation) in U2OS cells. Conditions: Homo sapiens; U2OS cells, 6 hrs, 2 mM H2O2; read-out: Parylation (U2OS). How it is done:
U2OS cells are seeded at 2667 cells per well in 24 ul medium into poly-D lysine-coated 384 well plate and incubated in the TC incubator for O/N
The next day, test comps are diluted in a source plate and 6 μL of the diluted comp is added to the cell plate; mixed well and incubated for 6 hrs. DNA damage is induced with 2 mM H2O2 for 10 min. After discarding the medium, cells are fixed in ice cold Methanol at for 20 min at −20C. After a wash step at room temperature, cells are permeabilized with 0.05% NP-40 in PBS for 10 min, followed by wash steps. Cells are blocked with 1% BSA, at room temperature for 1 hr. Cells are stained with anti mono/polyADP ribose antibody (E6F6A, Cell signaling, 1:5000) in 1×PBS/1% BSA/0.05% Tween o/n at 4C.
Next Day, cells are washed and incubated with anti-Rabbit 800CV (Licor antibody, 1:500) and CellTag 700 (Licor, 1:800) in 1×PBS/1% BSA/0.05% Tween for 1 h. After washing, plates are scanned using LICOR and are quantified.
Parylation inhibition is reported as % control inhibition.
(§1) The letter codes for the PARP1-enzyme assay include: A (<1 nM), B (>1-10 nM), C (>10-100 nM), D (>100-1000 nM), E (>1000 nM), and “-” is not tested. The letter codes for the PARP trapping assay, and parylation assay include: A (<10 nM), B (>10-100 nM), C (>100-1000 nM), […], E (>10000 nM), and “-” is not tested.

Another test concerns MDA-MB-436 cells. Kind of test: Cell proliferation assay (MDA-MB-436). Conditions: Homo sapiens, 168 h, 7 days. How it is done: (§2) Cells are counted, diluted to desired density and 40 μL of cell suspension is added into each 384-well tissue-culture treated plates. Plates are incubated in Tissue Culture incubator at 37° C./5% C02 overnight.
(§3) Next day, 40 nl test compounds that are prepared from source plates are transferred to the seeded cells from overnight. Plates are incubated at 37° C./5% C02 for a total of 7 days. After 7-day incubation, plates are equilibrated to room temperature and 30 ul of Cell Counting-Lite is added to each well for a 30 min incubation followed by reading on EnVision.
(§4) The letter codes for the cell proliferation assay in A2780, HCC1806, and MDA-MB-436 cells include: A (<10 nM), B (>10-100 nM), C (>100-1000 nM), D (>1000-10000 nM), E (>10000 nM), and “-” is not tested.

The subject of a further test is HCC1806 cells. Kind of test: Cell proliferation assay (HCC1806). The note with it: Homo sapiens, 168 h, 7 days. How it is done: as §2, §3, §4
The next test deals with PARP1 (Homo sapiens, UniProt P09874). Kind of test: PARP trapping assay in U2OS cells. The arrangement: endogenous in cells; host or cells: U2OS. Conditions: U2OS cells, MMS, 4 hrs; read-out: PARP Trapping (U2OS). How it is done:
U2OS cells are seeded at 15,000 cells/well in 90 ul medium and incubated in the TC incubator for overnight.
Next day, test compounds are prepared in a source plate along with addition of DNA damage reagent MMS simultaneously and 10 ul of the diluted mixture is added to the cell plate and incubated for 4 hrs under T/C conditions.
After 4 hrs, following aspiration and washing, add 100 ul of cold cytoskeleton removal buffer (0.5% Triton X-100) and incubated for 10 min. At the end of incubation, slowly the buffer is removed, and cells are fixed with ice cold MeOH for 15 min at −20C. Followed by wash steps, cells are blocked with 1×PBS/3% BSA/0.05% Tween for 1 h at room temperature.
Cells are stained with anti PARP1 antibody (abeam ab227244, 1:1000), in 1×PBS/1% BSA overnight at 4C.
Wash and add DAPI, scan cells in Celigo.
Data Analysis: DAPI staining is used to segment nuclei and AF488 fluorescence intensity per nucleus is measured.
as §1

Another test has as its system A2780 cells. Kind of test: Cell proliferation assay (A2780). The note with it: Homo sapiens, 168 h, 7 days. How it is done:
as §2, §3, §4

Chain of PARP1 (P09874 whole entry): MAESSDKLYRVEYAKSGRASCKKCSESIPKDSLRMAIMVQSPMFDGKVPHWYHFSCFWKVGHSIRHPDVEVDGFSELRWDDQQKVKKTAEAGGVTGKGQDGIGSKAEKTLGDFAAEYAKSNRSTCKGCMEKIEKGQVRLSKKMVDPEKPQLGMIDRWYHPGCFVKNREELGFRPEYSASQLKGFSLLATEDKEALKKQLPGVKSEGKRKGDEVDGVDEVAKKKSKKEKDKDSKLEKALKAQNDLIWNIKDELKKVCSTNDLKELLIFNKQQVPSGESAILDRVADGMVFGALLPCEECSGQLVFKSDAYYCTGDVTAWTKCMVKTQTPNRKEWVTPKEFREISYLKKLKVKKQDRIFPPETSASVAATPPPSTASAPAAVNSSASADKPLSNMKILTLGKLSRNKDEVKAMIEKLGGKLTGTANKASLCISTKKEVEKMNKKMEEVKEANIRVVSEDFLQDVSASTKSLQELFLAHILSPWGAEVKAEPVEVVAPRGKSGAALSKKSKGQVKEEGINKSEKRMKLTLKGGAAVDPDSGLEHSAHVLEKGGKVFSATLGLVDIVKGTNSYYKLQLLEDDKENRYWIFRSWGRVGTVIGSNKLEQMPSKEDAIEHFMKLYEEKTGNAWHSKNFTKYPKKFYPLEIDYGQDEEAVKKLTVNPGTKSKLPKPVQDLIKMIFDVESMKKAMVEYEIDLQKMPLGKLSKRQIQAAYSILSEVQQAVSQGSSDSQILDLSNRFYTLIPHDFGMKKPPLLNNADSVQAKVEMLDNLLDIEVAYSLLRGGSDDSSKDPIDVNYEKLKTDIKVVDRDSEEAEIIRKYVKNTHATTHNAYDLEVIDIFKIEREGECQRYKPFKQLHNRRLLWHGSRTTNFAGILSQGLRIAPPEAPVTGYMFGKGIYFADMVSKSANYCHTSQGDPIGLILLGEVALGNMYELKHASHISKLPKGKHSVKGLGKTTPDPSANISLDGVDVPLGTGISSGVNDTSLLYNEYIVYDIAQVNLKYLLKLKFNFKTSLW

As for `O=C(CN1CCN(CC2CCN(C(=O)c3c(F)cc(-c4ccccc4)cc3F)CC2)CC1)N1CCN(C(=O)c2cc(Cc3n[nH]c(=O)c4ccccc34)ccc2F)CC1` [Compound I-635], the IC50 in test [1] is below 10 nM; in the test with MDA-MB-436 cells, below 10 nM; in the test with HCC1806 cells, 10 to 100 nM; at PARP1, 10 to 100 nM; in the test on A2780 cells, below 10 nM.

In the case of `CCc1cccc(-c2cc(F)c(C(=O)N3CC4CCC3CC4CN3CCN(CC(=O)N4CCN(C(=O)c5cc(Cc6n[nH]c(=O)c7ccccc67)ccc5F)CC4)CC3)c(F)c2)c1` (centres unmarked) [Compound I-690], the IC50 in test [1] was 10 to 100 nM; with MDA-MB-436 cells it was below 10 nM; with HCC1806 cells it was 10 to 100 nM; on PARP1 it was 10 to 100 nM; in the test with A2780 cells, 100 to 1000 nM.

On to `CC(C)(C)OC(=O)N[C@@H](C(=O)N1CC[C@H](OC2CCN(CC(=O)N3CCN(C(=O)c4cc(Cc5n[nH]c(=O)c6ccccc56)ccc4F)CC3)CC2)C1)C1CCCCC1` [Compound I-875], for which the IC50 in test [1] was 100 to 1000 nM; in the test with MDA-MB-436 cells, below 10 nM; with HCC1806 cells, 100 to 1000 nM; at PARP1, 100 to 1000 nM; with A2780 cells, 100 to 1000 nM.

Turning to `O=C(N[C@@H](C(=O)N1CCC(OC2CCN(CC(=O)N3CCN(C(=O)c4cc(Cc5n[nH]c(=O)c6ccccc56)ccc4F)CC3)CC2)CC1)C1CCCCC1)c1cccc(C2CCCN(C(=O)C34CC(F)(C3)C4)C2)c1F` (some centres unmarked) [Compound I-750], the IC50 in test [1] was 10 to 100 nM; with MDA-MB-436 cells, below 10 nM; in the test on HCC1806 cells, 10 to 100 nM; on PARP1, 10 to 100 nM; in the test on A2780 cells, 10 to 100 nM.

Regarding `CC1(OC2CCN(CC(=O)N3CCN(C(=O)c4cc(Cc5n[nH]c(=O)c6ccccc56)ccc4F)CC3)CC2)CCN(C(=O)[C@H](NC(=O)c2cccc(C3CCCN(C(=O)C4(C)CC4)C3)c2F)C2CCCCC2)CC1` (some centres unmarked) [Compound I-893], the IC50 in test [1] fell in the range of 100 to 1000 nM; with MDA-MB-436 cells it was 10 to 100 nM; with HCC1806 cells it was 100 to 1000 nM; on PARP1, 10 to 100 nM; in the test on A2780 cells, 100 to 1000 nM.

For `CC(C)(F)C(=O)N1CCCC(c2cccc(C(=O)N[C@@H](C(=O)N3CCN(CC4CCN(CC(=O)N5CCN(C(=O)c6cc(Cc7n[nH]c(=O)c8ccccc78)ccc6F)CC5)CC4)CC3)C3CCCCC3)c2)C1` (some centres unmarked) [Compound I-528], the IC50 is 10 to 100 nM in test [1]; below 10 nM with MDA-MB-436 cells; 100 to 1000 nM in the test with HCC1806 cells; 100 to 1000 nM on PARP1; 10 to 100 nM with A2780 cells.

In the case of `O=C(CN1CCN(CC2CCN(C(=O)c3c(F)cc(-c4cnccn4)cc3F)CC2)CC1)N1CCN(C(=O)c2cc(Cc3n[nH]c(=O)c4ccccc34)ccc2F)CC1` [Compound I-739], the IC50 in test [1] is below 10 nM; in the test with MDA-MB-436 cells, below 10 nM; with HCC1806 cells, 100 to 1000 nM; at PARP1 it was 10 to 100 nM; in the test on A2780 cells, 100 to 1000 nM.

In the case of `CCc1cccc(-c2cnc(C(=O)NC34CCC(CN5CCN(CC(=O)N6CCN(C(=O)c7cc(Cc8n[nH]c(=O)c9ccccc89)ccc7F)CC6)CC5)(CC3)OC4)c(NC(C)=O)c2)c1` [Compound I-469], the IC50 is 10 to 100 nM in test [1]; below 10 nM with MDA-MB-436 cells; 10 to 100 nM with HCC1806 cells; 10 to 100 nM on PARP1; 10 to 100 nM in the test on A2780 cells.

Consider `CC1(OC2CCN(CC(=O)N3CCN(C(=O)c4cc(Cc5n[nH]c(=O)c6ccccc56)ccc4F)CC3)CC2)CCN(C(=O)[C@H](NC(=O)c2cccc(C3CCCN(C(=O)C45CC(C4)C5)C3)c2F)C2CCCCC2)CC1` (some centres unmarked) [Compound I-892], for which the IC50 in test [1] lay within 100 to 1000 nM; in the test on MDA-MB-436 cells it was 10 to 100 nM; in the test on HCC1806 cells, 100 to 1000 nM; on PARP1, 10 to 100 nM; in the test with A2780 cells it was 100 to 1000 nM.

Consider `O=C(CN1CCC(OC2CCN(C(=O)c3c(F)cc(-c4ccnnc4)cc3F)CC2)CC1)N1CCN(C(=O)c2cc(Cc3n[nH]c(=O)c4ccccc34)ccc2F)CC1` [Compound I-772], for which the IC50 in test [1] was 10 to 100 nM; in the test with MDA-MB-436 cells, below 10 nM; in the test with HCC1806 cells, 100 to 1000 nM; on PARP1, below 10 nM; in the test with A2780 cells, 100 to 1000 nM.
